# Test results from patent publication US10316017B2, “COT modulators and methods of use thereof” (Gilead Sciences, Inc., priority 2015, dated 2019).
# Assays:
# [1] = system: TNFα production in LPS-stimulated human monocytes; test: Cot Monocyte TNFα Cell Based Assay; settings: Homo sapiens, Monocyte, LPS-stimulated human monocytes, TNFα TR-FRET; read-out: EC50 TNF
# Summary of the method: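 Cells at 5,000/well were pretreated with compound for 1 h at 37 °C (0.5% DMSO final), then stimulated with 50 pg/ml LPS for 4 h at 37 °C. Supernatant TNFα was measured by two-antibody TR-FRET after overnight room-temperature incubation; values are percent of control between unstimulated and stimulated wells.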
# [2] = biological target: T1, human Cot catalytic domain (30-397 amino acids) (Homo sapiens, UniProt P41279); test: High Throughput Cot Biochemical Assay (KinEASE TR-FRET); settings: Cot KinEASE TR-FRET, 400 μM ATP; read-out: IC50 HTRF
# T1 construct: Purified recombinant human Cot catalytic domain (30-397 amino acids) was purchased from Cama Biosciences; purchased Cama Biosciences (so in the source)
# T1 sequence (P41279 30-397): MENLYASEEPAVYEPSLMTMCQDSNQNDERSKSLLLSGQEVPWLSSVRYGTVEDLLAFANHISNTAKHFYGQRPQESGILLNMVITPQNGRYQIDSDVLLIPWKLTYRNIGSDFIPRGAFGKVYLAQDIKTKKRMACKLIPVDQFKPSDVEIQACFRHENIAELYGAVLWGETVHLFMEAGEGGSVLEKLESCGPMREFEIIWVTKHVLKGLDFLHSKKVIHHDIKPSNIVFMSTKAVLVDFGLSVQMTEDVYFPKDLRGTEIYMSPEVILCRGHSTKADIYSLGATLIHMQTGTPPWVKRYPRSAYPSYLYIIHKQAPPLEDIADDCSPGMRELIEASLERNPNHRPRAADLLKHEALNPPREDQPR
# Summary of the method: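 Reaction of 5 nM recombinant human Cot catalytic domain (aa 30-397) with 1 μM STK3 peptide (XL665-labeled) and 400 μM ATP in 10 mM MOPS pH 7.0, 10 mM MgOAc, 1 mM DTT, 0.5 mg/mL BSA, 0.1% DMSO. Phosphopeptide detected by TR-FRET with europium anti-phospho antibody.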
Structure (SMILES),EC50 [1] [nM],IC50 [2] [nM]
"Cc1cc(C#N)ccc1[C@H](Nc1cc(C#N)c2ncc(C#N)c(NCC(C)(C)C)c2c1)c1cn(C2(C(F)F)CC2)nn1 [Example 1139, (S)-6-(((4-cyano-2-methylphenyl)(1-(1-(difluoromethyl)cyclopropyl)-1H-1,2,3-triazol-4-yl)methyl)amino)-4-(neopentylamino)quinoline-3,8-dicarbonitrile]",82,13
"Cc1cc(C#N)ccc1[C@H](Nc1cc(C#N)c2ncc(C#N)c(NCC(C)(C)C)c2c1)c1cn(C2(C(F)(F)F)CC2)nn1 [Example 1140, (S)-6-(((4-cyano-2-methylphenyl)(1-(1-(trifluoromethyl)cyclopropyl)-1H-1,2,3-triazol-4-yl)methyl)amino)-4-(neopentylamino)quinoline-3,8-dicarbonitrile]",119,22
"Cc1c(-c2ccncc2)cccc1[C@H](Nc1cc(C#N)c2ncc(C#N)c(NCC(C)(C)C)c2c1)c1cn(C2(C(F)F)CC2)nn1 [Example 1141, (S)-6-(((1-(1-(difluoromethyl)cyclopropyl)-1H-1,2,3-triazol-4-yl)(2-methyl-3-(pyridin-4-yl)phenyl)methyl)amino)-4-(neopentylamino)quinoline-3,8-dicarbonitrile]",69,2
"Cc1c(-c2cnn(C)c2)cccc1[C@H](Nc1cc(C#N)c2ncc(C#N)c(NCC(C)(C)C)c2c1)c1cn(C2(C(F)F)CC2)nn1 [Example 1142, (S)-6-(((1-(1-(difluoromethyl)cyclopropyl)-1H-1,2,3-triazol-4-yl)(2-methyl-3-(1-methyl-1H-pyrazol-4-yl)phenyl)methyl)amino)-4-(neopentylamino)quinoline-3,8-dicarbonitrile]",31,2
"Cc1c(-c2ccn(C)n2)cccc1[C@H](Nc1cc(C#N)c2ncc(C#N)c(NCC(C)(C)C)c2c1)c1cn(C2(C(F)(F)F)CC2)nn1 [Example 1143, (S)-6-(((2-methyl-3-(1-methyl-1H-pyrazol-3-yl)phenyl)(1-(1-(trifluoromethyl)cyclopropyl)-1H-1,2,3-triazol-4-yl)methyl)amino)-4-(neopentylamino)quinoline-3,8-dicarbonitrile]",239,7
"Cc1c(-c2ccccn2)cccc1[C@H](Nc1cc(C#N)c2ncc(C#N)c(NCC(C)(C)C)c2c1)c1cn(C2(C(F)(F)F)CC2)nn1 [Example 1144, (S)-6-(((2-methyl-3-(pyridin-2-yl)phenyl)(1-(1-(trifluoromethyl)cyclopropyl)-1H-1,2,3-triazol-4-yl)methyl)amino)-4-(neopentylamino)quinoline-3,8-dicarbonitrile]",379,11
"Cc1c(-c2cn(C)cn2)cccc1[C@H](Nc1cc(C#N)c2ncc(C#N)c(NCC(C)(C)C)c2c1)c1cn(C2(C(F)(F)F)CC2)nn1 [Example 1145, (S)-6-(((2-methyl-3-(1-methyl-1H-imidazol-4-yl)phenyl)(1-(1-(trifluoromethyl)cyclopropyl)-1H-1,2,3-triazol-4-yl)methyl)amino)-4-(neopentylamino)quinoline-3,8-dicarbonitrile]",99,5
"Cc1c(C#N)cccc1[C@H](Nc1cc(C#N)c2ncc(C#N)c(NCC(C)(C)C(F)(F)F)c2c1)c1cn(C2(C)CC2)nn1 [Example 1146, (S)-6-(((3-cyano-2-methylphenyl)(1-(1-methylcyclopropyl)-1H-1,2,3-triazol-4-yl)methyl)amino)-4-((3,3,3-trifluoro-2,2-dimethylpropyl)amino)quinoline-3,8-dicarbonitrile]",33,2
"Cc1c(C#N)cccc1[C@H](Nc1cc(C#N)c2ncc(C#N)c(NCC(C)(C)C)c2c1)c1cn(C2(CF)CC2)nn1 [Example 1147, (S)-6-(((3-cyano-2-methylphenyl)(1-(1-(fluoromethyl)cyclopropyl)-1H-1,2,3-triazo1-4-yl)methyl)amino)-4-(neopentylamino)quinoline-3,8-dicarbonitrile]",15,2
"Cc1c(C#N)cccc1[C@H](Nc1cc(C#N)c2ncc(C#N)c(NCC(C)(C)C)c2c1)c1cn(C2(C)CC2)nn1 [Example 1148, (S)-6-(((3-cyano-2-methylphenyl)(1-(1-methylcyclopropyl)-1H-1,2,3-triazol-4-yl)methyl)amino)-4-(neopentylamino)quinoline-3,8-dicarbonitrile]",20,2
"Cc1c(C#N)cccc1[C@H](Nc1cc(C#N)c2ncc(C#N)c(NCC(C)(C)C)c2c1)c1cn(C(CF)CF)nn1 [Example 1149, (S)-6-(((3-cyano-2-methylphenyl)(1-(1,3-difluoropropan-2-yl)-1H-1,2,3-triazol-4-yl)methyl)amino)-4-(neopentylamino)quinoline-3,8-dicarbonitrile]",45,4
"Cc1c(C#N)cccc1[C@H](Nc1cc(C#N)c2ncc(C#N)c(NCC(C)(C)C)c2c1)c1cn([C@@H](C)CF)nn1 [Example 1150, 6-(((S)-(3-cyano-2-methylphenyl)(1-((S)-1-fluoropropan-2-yl)-1H-1,2,3-triazol-4-yl)methyl)amino)-4-(neopentylamino)quinoline-3,8-dicarbonitrile]",27,2
"Cc1c(C#N)cccc1[C@H](Nc1cc(C#N)c2ncc(C#N)c(NCC(C)(C)C(F)(F)F)c2c1)c1cn(C23CC(C2)C3)nn1 [Example 1151, (S)-6-(((1-(bicyclo[1.1.1]pentan-1-yl)-1H-1,2,3-triazol-4-yl)(3-cyano-2-methylphenyl)methyl)amino)-4-((3,3,3-trifluoro-2,2-dimethylpropyl)amino) quinoline-3,8-dicarbonitrile]",36,2
"Cc1c(C#N)cccc1[C@H](Nc1cc(C#N)c2ncc(C#N)c(NCC(C)(C)C(F)(F)F)c2c1)c1cn(C2(C3CC3)CC2)nn1 [Example 1152, (S)-6-(((1-([1,1'-bi(cyclopropan)]-1-yl)-1H-1,2,3-triazol-4-yl)(3-cyano-2-methylphenyl)methyl)amino)-4-((3,3,3-trifluoro-2,2-dimethylpropyl)amino)quinoline-3,8-dicarbonitrile]",49,3
"Cc1c(-c2cn[nH]c2)cccc1[C@H](Nc1cc(C#N)c2ncc(C#N)c(NCC(C)(C)C)c2c1)c1cn(C2(C(F)F)CC2)nn1 [Example 1153, (S)-6-(((1-(1-(difluoromethyl)cyclopropyl)-1H-1,2,3-triazol-4-yl)(2-methyl-3-(1H-pyrazol-4-yl)phenyl)methyl)amino)-4-(neopentylamino)quinoline-3,8-dicarbonitrile]",42,2
"Cc1c(-c2cncn2C)cccc1[C@H](Nc1cc(C#N)c2ncc(C#N)c(NCC(C)(C)C)c2c1)c1cn(C2(C(F)F)CC2)nn1 [Example 1154, (S)-6-(((1-(1-(difluoromethyl)cyclopropyl)-1H-1,2,3-triazol-4-yl)(2-methyl-3-(1-methyl-1H-imidazol-5-yl)phenyl)methyl)amino)-4-(neopentylamino)quinoline-3,8-dicarbonitrile]",45,2
